The source of these data is patent US6316409A, “Modified ligands of calcium-dependent binding proteins” (Medical Research Council, priority 1996, dated 2001).

Test [1] deals with T1, calmodulin (Bos taurus, UniProt P62157). Briefly: kinetic analysis of N9 replacement peptides and multiple mutant by the methods of Examples 3 and 4. The format is binding. The protocol:
Real-time interaction analysis by surface plasmon resonance on a BIAcore instrument (Jonsson et al., 1991) was used to determine kon and koff constants. […] Different concentrations of calmodulin (5, 10, 20, 50 and 100 nM in the order of FIG. 2) were injected and allowed to associate with the peptides. Regeneration of the surface was achieved by injection of 5 μl TBS+[…] which dissociates the calmodulin-peptide complex.
30 nM fluorescein-labelled peptide/calmodulin complexes in gel buffer were competed at room temperature for different times with 30-fold excess of unlabelled peptide. The resulting mixtures were run on native PAGE gels and imaged by LUANA as described above. The bands in the image obtained were integrated using the LUANA software (Neri et al., 1996) and the corresponding intersities plotted versus time and fitted with a single exponential, from which koff constants were derived. In order to normalise band intensities against pipetting errors, the samples contained 6 nM free fluorescein which ran with the front. The fluorescein bands were integrated and used to normalise the calmodulin/fluorescent peptide complex band intensity. […] Incubation time in minutes is indicated under the lanes.
Hydrophobic donor residues (valine, phenylalanine and leucine) were chosen because it was hypothesized that these residues would contribute to the stability of the hydrophobic environment in the calmodulin core.

Test [2] addresses T2, bovine brain calmodulin (Bos taurus, UniProt P62157).
T2 construct: Complexes between calmodulin from bovine brain (1 μM, Sigma); purchased Sigma; host or cells: bovine brain (tissue-derived)
In words: stopped-flow measurement of kisom of calmodulin-binding peptides. To be noted: changes in tryptophan fluorescence. An excerpt: It has been shown by Torok and Trentham (1994) that smooth muscle MLCK-derived peptides bind to calmodulin with a biphasic kinetic according to the scheme: [drawing 1]
in which P is the peptide, C is calmodulin, P-C is the first complex formed on association of P and C, which then undergoes a conformational isomerisation to P-C*.
(§1) For a kinetic and thermodynamic characterisation of the binding of the peptides of the present invention to bovine brain calmodulin, we have measured the kinetic isomerisation, association, and dissociation constants from which dissociation constants can be derived.
kisom constants have been measured by stopped-flow, detecting changes in tryptophan fluorescence for all the peptides except 3 (SEQ ID NO:4), in which the tryptophan is replaced by alanine.

Test [3] deals with T1, calmodulin. Briefly: koff by competition experiments, native PAGE of fluorescein-labelled peptide/calmodulin complexes. The following applies: competition with 30-fold excess unlabelled peptide, room temperature, gel buffer; read-out: koff (s^-1)^C. Also noted: Complexes between calmodulin from bovine brain (1 μM, Sigma); purchased Sigma; host or cells: bovine brain (tissue-derived). Type of test: binding, bovine. As for the experimental part:
Complexes between calmodulin from bovine brain (1 μM, Sigma) and fluorescein-labelled sMLCK-derived peptides (as described in Table 1 (SEQ ID NOS:2-18)) were prepared in gel buffer (25% gel mix [4 g sucrose+1 mg bromophenol blue in water to give a 10 ml solution]+75% TBSC [50 mM TRIS pH 7.4, […]+50 μM CaCl2)] and run on a 15% native PAGE gel (5 ml 30% acrylamide-bisacrylamide solution+4.5 ml water+0.5 ml 3M Tris, pH 8.8, +1 μl 1M CaCl2 polymerised with 30 μl 25% ammonium persulphate and 9 μl TEMED) using 14.4 g/l glycine+3 g/l Tris-base+0.1 mM CaCl2 as running buffer. Peptides were labelled either with iodoacetamido fluorescein (Molecular Probes) or with iodoacetamido-LC-biotin (Pierce) essentially as previously described by Neri et al., (1995). In these conditions, the fluorescence of the positively-charged labelled peptides can be detected only if they form a stable complex with calmodulin.
In order to obtain an independent experimental confirmation if the BIAcore results, koff constants for peptides 1-17 towards calmodulin were determined by competition experiments. 30 nM fluorescein-labelled peptide/calmodulin complexes in gel buffer were competed at room temperature for different times with 30-fold excess of unlabelled peptide. The resulting mixtures were run on native PAGE gels and imaged by LUANA as described above. The bands in the image obtained were integrated using the LUANA software (Neri et al., 1996) and the corresponding intersities plotted versus time and fitted with a single exponential, from which koff constants were derived. In order to normalise band intensities against pipetting errors, the samples contained 6 nM free fluorescein which ran with the front. The fluorescein bands were integrated and used to normalise the calmodulin/fluorescent peptide complex band intensity. The results of competitions for peptides 1, 2, 3, 6, 9, and 14 are shown in this FIG. 3. Incubation time in minutes is indicated under the lanes.
The volumes of the bands were plotted versus competition time and fitted to a single exponential, from which koff values were derived.
The fastest competitions (peptides 1-4, 9 and 13, SEQ ID NOS:2-5,10, and 14) were over by the time the calmodulin/fluorescent peptide complex entered the gel (approximately 5-10 minutes from pipetting a molar excess of unlabelled peptide; FIG. 3), from which a condition on the off-rate constant koff >1×10^-3 s^-1 was derived. Even for these fast off-rates, complexes can be detected by native polyacrylamide gel electrophoresis because of the well known gel "cage effect" (Fried and Crothers, 1981; Garner and Revzin, 1981).

The target of test [4] is T2, bovine brain calmodulin. Briefly: BIAcore surface plasmon resonance, kon and koff of calmodulin binding to biotinylated peptides. To be noted: BIAcore; for koff: read-out: koff (s^-1)^B; for kon: read-out: kon (s^-1 M^-1)^B.
Excerpt: as §1
koff =k-1·k-2 /(k+2 +k-2)
Real-time interaction analysis by surface plasmon resonance on a BIAcore instrument (Jonsson et al., 1991) was used to determine kon and koff constants. Biotinylated peptides 1-17 were bound to commercially available streptavidin-coated microsensor chips (Pharmacia Biosensor), in order to achieve a surface capacity of 100-200 surface plasmon resonance units of calmodulin bound. Different concentrations of calmodulin (5, 10, 20, 50 and 100 nM in the order of FIG. 2) were injected and allowed to associate with the peptides. Regeneration of the surface was achieved by injection of 5 μl TBS+[…] which dissociates the calmodulin-peptide complex.
(In general: SPR reads the build-up and loss of mass on a sensor chip optically.)

Molecules are shown by their SMILES. Peptide text beside a SMILES is read from it.

Broadly, the koff is a measure of how fast the partners let go of each other. As usually defined, the kon is the rate constant with which the complex forms. Take `CC[C@H](C)[C@H](NC(=O)[C@H](CCCCN)NC(=O)[C@H](C)NC(=O)[C@H](Cc1ccccc1)NC(=O)[C@H](CCCNC(=N)N)NC(=O)[C@H](CC(N)=O)NC(=O)[C@H](C)NC(=O)[C@H](C)NC(=O)[C@H](C)NC(=O)[C@@H](NC(=O)[C@H](C)NC(=O)[C@@H](NC(=O)[C@H](Cc1ccccc1)NC(=O)[C@H](C)NC(=O)[C@H](CCCCN)NC(=O)[C@H](CCCCN)NC(=O)[C@H](Cc1c[nH]c2ccccc12)NC(=O)[C@H](CCCNC(=N)N)NC(=O)[C@H](C)NC(=O)[C@H](C)NC(=O)[C@H](C)NC(=O)[C@@H](N)CS)[C@@H](C)CC)C(C)C)C(=O)N[C@@H](C)C(N)=O` [SEQ ID NO:19] (H-CAAARWKKAFIAVAAANRFAKIA-NH2; N-terminus and C-terminus assumed): the “affinity for calmodulin compared with other peptides, in words” value on calmodulin [1] is reported as “comparable to that of peptide 6”. On calmodulin [1] (multiple mutant), the koff was found to be 5.9e-06 s⁻¹ and the kon was 610000 M⁻¹ s⁻¹.
At calmodulin [1] (Table II, N9 replacement), `CC[C@H](C)[C@H](NC(=O)[C@H](Cc1ccccc1)NC(=O)[C@H](CC(C)C)NC(=O)[C@H](CCCCN)NC(=O)[C@H](CCCCN)NC(=O)[C@H](Cc1c[nH]c2ccccc12)NC(=O)[C@H](CCCNC(=N)N)NC(=O)[C@H](C)NC(=O)[C@H](C)NC(=O)[C@H](C)NC(=O)[C@@H](N)CS)C(=O)N[C@@H](C)C(=O)N[C@H](C(=O)N[C@@H](CO)C(=O)N[C@@H](C)C(=O)N[C@@H](C)C(=O)N[C@@H](CC(N)=O)C(=O)N[C@@H](CCCNC(=N)N)C(=O)N[C@@H](Cc1ccccc1)C(=O)N[C@@H](CCCCN)C(=O)N[C@@H](CCCCN)C(=O)N[C@H](C(=O)N[C@@H](CO)C(N)=O)[C@@H](C)CC)C(C)C` [c] (H-CAAARWKKLFIAVSAANRFKKIS-NH2; N-terminus and C-terminus assumed) had a koff of 2.3e-05 s⁻¹ and a kon of 1.1e+06 M⁻¹ s⁻¹.
The like results for `CC[C@H](C)[C@H](NC(=O)[C@H](Cc1ccccc1)NC(=O)[C@@H](NC(=O)[C@H](CCCCN)NC(=O)[C@H](CCCCN)NC(=O)[C@H](Cc1c[nH]c2ccccc12)NC(=O)[C@H](CCCNC(=N)N)NC(=O)[C@H](C)NC(=O)[C@H](C)NC(=O)[C@H](C)NC(=O)[C@@H](N)CS)C(C)C)C(=O)N[C@@H](C)C(=O)N[C@H](C(=O)N[C@@H](CO)C(=O)N[C@@H](C)C(=O)N[C@@H](C)C(=O)N[C@@H](CC(N)=O)C(=O)N[C@@H](CCCNC(=N)N)C(=O)N[C@@H](Cc1ccccc1)C(=O)N[C@@H](CCCCN)C(=O)N[C@@H](CCCCN)C(=O)N[C@H](C(=O)N[C@@H](CO)C(N)=O)[C@@H](C)CC)C(C)C` [a] (H-CAAARWKKVFIAVSAANRFKKIS-NH2; N-terminus and C-terminus assumed) were, in that order, 0.00035 s⁻¹ and 850000 M⁻¹ s⁻¹.
Taken in the same sequence, the figures for `CC[C@H](C)[C@H](NC(=O)[C@H](Cc1ccccc1)NC(=O)[C@H](Cc1ccccc1)NC(=O)[C@H](CCCCN)NC(=O)[C@H](CCCCN)NC(=O)[C@H](Cc1c[nH]c2ccccc12)NC(=O)[C@H](CCCNC(=N)N)NC(=O)[C@H](C)NC(=O)[C@H](C)NC(=O)[C@H](C)NC(=O)[C@@H](N)CS)C(=O)N[C@@H](C)C(=O)N[C@H](C(=O)N[C@@H](CO)C(=O)N[C@@H](C)C(=O)N[C@@H](C)C(=O)N[C@@H](CC(N)=O)C(=O)N[C@@H](CCCNC(=N)N)C(=O)N[C@@H](Cc1ccccc1)C(=O)N[C@@H](CCCCN)C(=O)N[C@@H](CCCCN)C(=O)N[C@H](C(=O)N[C@@H](CO)C(N)=O)[C@@H](C)CC)C(C)C` [b] (H-CAAARWKKFFIAVSAANRFKKIS-NH2; N-terminus and C-terminus assumed) were 2.9e-05 s⁻¹ and 290000 M⁻¹ s⁻¹.
As for `CC[C@H](C)[C@H](NC(=O)[C@H](Cc1ccccc1)NC(=O)[C@H](CC(N)=O)NC(=O)[C@H](CCCCN)NC(=O)[C@H](CCCCN)NC(=O)[C@H](Cc1c[nH]c2ccccc12)NC(=O)[C@H](CCCNC(=N)N)NC(=O)[C@H](C)NC(=O)[C@H](C)NC(=O)[C@H](C)NC(=O)[C@@H](N)CS)C(=O)N[C@@H](C)C(=O)N[C@H](C(=O)N[C@@H](CO)C(=O)N[C@@H](C)C(=O)N[C@@H](C)C(=O)N[C@@H](CC(N)=O)C(=O)N[C@@H](CCCNC(=N)N)C(=O)N[C@@H](Cc1ccccc1)C(=O)N[C@@H](CCCCN)C(=O)N[C@@H](CCCCN)C(=O)N[C@@H](C)C(=O)N[C@@H](CO)C(N)=O)C(C)C` [Peptide 16] (H-CAAARWKKNFIAVSAANRFKKAS-NH2; N-terminus assumed), on bovine brain calmodulin [2], the “kisom. (s^-1)^A” value is 8.7 (11.5) × 10^-2 s^-1. The koff was 0.00028 s⁻¹ on calmodulin [3] and 0.00031 s⁻¹ on bovine brain calmodulin [4]. For the same molecule, the kon on bovine brain calmodulin [4] was 810000 M⁻¹ s⁻¹.
The like results for `CC[C@H](C)[C@H](NC(=O)[C@H](Cc1ccccc1)NC(=O)[C@H](CC(N)=O)NC(=O)[C@H](CCCCN)NC(=O)[C@H](CCCCN)NC(=O)[C@H](Cc1c[nH]c2ccccc12)NC(=O)[C@H](CCCNC(=N)N)NC(=O)[C@H](C)NC(=O)[C@H](C)NC(=O)[C@H](C)NC(=O)[C@@H](N)CS)C(=O)N[C@@H](C)C(=O)N[C@H](C(=O)N[C@@H](CO)C(=O)N[C@@H](C)C(=O)N[C@@H](C)C(=O)N[C@@H](C)C(=O)N[C@@H](CCCNC(=N)N)C(=O)N[C@@H](Cc1ccccc1)C(=O)N[C@@H](CCCCN)C(=O)N[C@@H](CCCCN)C(=O)N[C@H](C(=O)N[C@@H](CO)C(N)=O)[C@@H](C)CC)C(C)C` [Peptide 11] (H-CAAARWKKNFIAVSAAARFKKIS-NH2; N-terminus assumed) were, in that order, 2.8 (10.6) × 10^-2 s^-1, 0.00049 s⁻¹, 0.00035 s⁻¹ and 940000 M⁻¹ s⁻¹.
Taken in the same sequence, the figures for `CC[C@H](C)[C@H](NC(=O)[C@H](Cc1ccccc1)NC(=O)[C@H](CC(N)=O)NC(=O)[C@H](CCCCN)NC(=O)[C@H](C)NC(=O)[C@H](Cc1c[nH]c2ccccc12)NC(=O)[C@H](CCCNC(=N)N)NC(=O)[C@H](C)NC(=O)[C@H](C)NC(=O)[C@H](C)NC(=O)[C@@H](N)CS)C(=O)N[C@@H](C)C(=O)N[C@H](C(=O)N[C@@H](CO)C(=O)N[C@@H](C)C(=O)N[C@@H](C)C(=O)N[C@@H](CC(N)=O)C(=O)N[C@@H](CCCNC(=N)N)C(=O)N[C@@H](Cc1ccccc1)C(=O)N[C@@H](CCCCN)C(=O)N[C@@H](CCCCN)C(=O)N[C@H](C(=O)N[C@@H](CO)C(N)=O)[C@@H](C)CC)C(C)C` [Peptide 4] (H-CAAARWAKNFIAVSAANRFKKIS-NH2; N-terminus assumed) were 2.4 (10.6) × 10^-1 s^-1, at least 0.001 s⁻¹, 0.003 s⁻¹ and 1.3e+06 M⁻¹ s⁻¹.
